From publication PMC9668280, “3H-1,2-Benzoxaphosphepine 2-oxides as selective inhibitors of carbonic anhydrase IX and XII” (Journal of Enzyme Inhibition and Medicinal Chemistry, 2022) come the findings set out here.

Like-named read-outs stand apart in the source and are kept apart here.

What all share (test): stopped-flow CO2 hydration assay
Holding throughout (format): biochemical

In one assay the target is T1, hCA IX (Homo sapiens, UniProt Q16790).
T1 construct: gene CA9; recombinant, obtained in-house
Conditions: read-out: KI (μM)^a,b / hCA IX. From the text: stopped-flow CO2 hydration assay on hCA IX

For the next assay, the target named is T2, hCA I (Homo sapiens, UniProt P00915).
T2 construct: gene CA1; recombinant, obtained in-house
Particulars: read-out: KI (μM)^a,b / hCA I. The text has this:
stopped-flow CO2 hydration assay on hCA I

Another assay concerns the target T3, hCA XII (Homo sapiens, UniProt O43570).
T3 construct: gene CA12; recombinant, obtained in-house
Conditions: read-out: KI (μM)^a,b / hCA XII. The text has this: stopped-flow CO2 hydration assay on hCA XII

The target of assay [1] is T4, hCA II (Homo sapiens, UniProt P00918).
T4 construct: gene CA2; recombinant, obtained in-house
Particulars: CO2 1.7-17 mM, 20 mM HEPES pH 7.4, 20 mM NaClO4, 6 h preincubation at room temperature; read-out: KI (μM)^a,b / hCA I. The text has this:
stopped-flow CO2 hydration assay on hCA II

Assay [2] deals with T4, hCA II. Particulars: CO2 […], […] HEPES pH […] NaClO4, […] h preincubation at room temperature; read-out: KI (μM)^a,b / hCA I.
Where [3] appears, read: CO2 1.7-17 mM, 20 mM HEPES pH 7.4, 20 mM NaClO4, 6 h preincubation at room temperature.
Setting [4] is: CO2 […], […] HEPES pH […] NaClO4, […] h preincubation at room temperature.

T3 sequence (O43570 25-354 limits assumed): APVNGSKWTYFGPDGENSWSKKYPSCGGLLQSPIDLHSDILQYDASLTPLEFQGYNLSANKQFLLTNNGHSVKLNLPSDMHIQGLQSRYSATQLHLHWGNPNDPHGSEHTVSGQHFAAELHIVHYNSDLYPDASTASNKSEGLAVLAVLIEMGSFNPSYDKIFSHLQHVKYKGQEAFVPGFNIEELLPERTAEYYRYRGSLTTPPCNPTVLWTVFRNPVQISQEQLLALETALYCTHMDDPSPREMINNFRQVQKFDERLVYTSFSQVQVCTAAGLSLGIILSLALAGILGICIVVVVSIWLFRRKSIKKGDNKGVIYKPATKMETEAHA
T2 sequence (P00915 2-261): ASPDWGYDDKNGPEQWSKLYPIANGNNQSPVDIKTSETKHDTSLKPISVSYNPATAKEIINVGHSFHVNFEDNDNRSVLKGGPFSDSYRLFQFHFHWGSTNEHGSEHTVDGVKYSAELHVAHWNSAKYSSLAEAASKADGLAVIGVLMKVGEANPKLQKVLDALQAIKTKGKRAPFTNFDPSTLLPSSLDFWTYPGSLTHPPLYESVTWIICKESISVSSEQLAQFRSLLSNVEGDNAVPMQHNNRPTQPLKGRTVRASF

“2-Hydroxy-3H-benzo[f][1,2]oxaphosphepine 2-oxide [7a]”: the Ki on hCA IX (setting [3]) was 1.3 µM; at hCA I (setting [3]), more than 100 µM; at hCA XII (setting [3]), 0.51 µM; at hCA II [1], more than 100 µM.
For the molecule `CCOP1(=O)CC=Cc2ccccc2O1` (stereo not shown) [6a, 2-Ethoxy-3H-benzo[f][1,2]oxaphosphepine 2-oxide], the Ki on hCA IX (setting [4]) is 0.82 µM; at hCA I (setting [4]), more than 100 µM; on hCA II [2] it was more than 100 µM.
For `CCOP1(=O)CC=Cc2cc(I)ccc2O1` (stereo not shown) [6b, 2-Ethoxy-7-iodo-3H-benzo[f][1,2]oxaphosphepine 2-oxide], the Ki was 4.7 µM on hCA IX (setting [4]), more than 100 µM at hCA I (setting [4]), 2.4 µM at hCA XII (setting [4]) and more than 100 µM at hCA II [2].
Consider `CCOP1(=O)CC=Cc2cc(Br)ccc2O1` (stereo not shown) [6c, 7-Bromo-2-ethoxy-3H-benzo[f][1,2]oxaphosphepine 2-oxide], for which the Ki on hCA IX (setting [4]) is 0.76 µM; on hCA I (setting [4]), more than 100 µM; on hCA XII (setting [4]), 1.6 µM; on hCA II [2], more than 100 µM.
Regarding `CCOP1(=O)CC=Cc2cccc(Br)c2O1` (stereo not shown) [6d, 9-Bromo-2-ethoxy-3H-benzo[f][1,2]oxaphosphepine 2-oxide], the Ki on hCA IX (setting [4]) is 11.3 µM; at hCA I (setting [4]) it was more than 100 µM; at hCA XII (setting [4]), 3.3 µM; at hCA II [2], more than 100 µM.
`CCOP1(=O)CC=Cc2cccc(OC)c2O1` (stereo not shown) [6e, 2-Ethoxy-9-methoxy-3H-benzo[f][1,2]oxaphosphepine 2-oxide]: the Ki is 9 µM at hCA IX (setting [4]), more than 100 µM on hCA I (setting [4]), 7.4 µM at hCA XII (setting [4]) and more than 100 µM at hCA II [2].
Consider `CCOP1(=O)CC=Cc2cc(Cl)cc(Cl)c2O1` (stereo not shown) [6f, 7,9-Dichloro-2-ethoxy-3H-benzo[f][1,2]oxaphosphepine 2-oxide], for which the Ki on hCA IX (setting [4]) is 6.1 µM; at hCA I (setting [4]), more than 100 µM; at hCA XII (setting [4]), 3.4 µM; at hCA II [2] it was more than 100 µM.
As to `CCOP1(=O)CC=Cc2cc([N+](=O)[O-])ccc2O1` (stereo not shown) [6g, 2-Ethoxy-7-nitro-3H-benzo[f][1,2]oxaphosphepine 2-oxide], the Ki on hCA IX (setting [4]) was 3.9 µM; at hCA I (setting [4]) it was more than 100 µM; on hCA XII (setting [4]) it was 0.95 µM; at hCA II [2], more than 100 µM.
As to `O=P1(O)CC=Cc2cc(I)ccc2O1` [7b, 2-Hydroxy-7-iodo-3H-benzo[f][1,2]oxaphosphepine 2-oxide], the Ki at hCA IX (setting [4]) is 0.88 µM; at hCA I (setting [4]) it was more than 100 µM; at hCA XII (setting [4]) it was 0.68 µM; at hCA II [2], more than 100 µM.
As to `O=P1(O)CC=Cc2cc(Br)ccc2O1` [7c, 7-Bromo-2-hydroxy-3H-benzo[f][1,2]oxaphosphepine 2-oxide], the Ki is 1 µM at hCA IX (setting [4]), more than 100 µM at hCA I (setting [4]), 0.96 µM on hCA XII (setting [4]) and more than 100 µM at hCA II [2].
In the case of `O=P1(O)CC=Cc2cccc(Br)c2O1` [7d, 9-Bromo-2-hydroxy-3H-benzo[f][1,2]oxaphosphepine 2-oxide], the Ki on hCA IX (setting [4]) was 2.5 µM; on hCA I (setting [4]) it was more than 100 µM; on hCA XII (setting [4]), 1.8 µM; at hCA II [2], more than 100 µM.
`COc1cccc2c1OP(=O)(O)CC=C2` [7e, 2-Hydroxy-9-methoxy-3H-benzo[f][1,2]oxaphosphepine 2-oxide]: the Ki was 1.8 µM on hCA IX (setting [4]), more than 100 µM on hCA I (setting [4]), 1.2 µM at hCA XII (setting [4]) and more than 100 µM at hCA II [2].
Consider `O=P1(O)CC=Cc2cc(Cl)cc(Cl)c2O1` [7f, 7,9-Dichloro-2-hydroxy-3H-benzo[f][1,2]oxaphosphepine 2-oxide], for which the Ki on hCA IX (setting [4]) was 0.8 µM; at hCA I (setting [4]) it was more than 100 µM; on hCA XII (setting [4]) it was 1.7 µM; at hCA II [2] it was more than 100 µM.
Consider `O=[N+]([O-])c1ccc2c(c1)C=CCP(=O)(O)O2` [7g, 2-Hydroxy-7-nitro-3H-benzo[f][1,2]oxaphosphepine 2-oxide], for which the Ki is 0.67 µM at hCA IX (setting [4]), more than 100 µM on hCA I (setting [4]), 1 µM on hCA XII (setting [4]) and more than 100 µM on hCA II [2].
